# Counter-ions that a name gives are not always drawn.
# Molecular target: T1, human CGT (ceramide galactosyltransferase), CHO/CGT lysate (Homo sapiens, UniProt Q16880)
# T1 construct: Full-length human CGT cDNA was cloned into the BamH1/Xho1 site of pcDNA3.1 (+); expressed in transfected cells; host or cells: Chinese hamster ovary (CHO) cells; lysate prepared with M-PER
# T1 sequence (Q16880 21-541): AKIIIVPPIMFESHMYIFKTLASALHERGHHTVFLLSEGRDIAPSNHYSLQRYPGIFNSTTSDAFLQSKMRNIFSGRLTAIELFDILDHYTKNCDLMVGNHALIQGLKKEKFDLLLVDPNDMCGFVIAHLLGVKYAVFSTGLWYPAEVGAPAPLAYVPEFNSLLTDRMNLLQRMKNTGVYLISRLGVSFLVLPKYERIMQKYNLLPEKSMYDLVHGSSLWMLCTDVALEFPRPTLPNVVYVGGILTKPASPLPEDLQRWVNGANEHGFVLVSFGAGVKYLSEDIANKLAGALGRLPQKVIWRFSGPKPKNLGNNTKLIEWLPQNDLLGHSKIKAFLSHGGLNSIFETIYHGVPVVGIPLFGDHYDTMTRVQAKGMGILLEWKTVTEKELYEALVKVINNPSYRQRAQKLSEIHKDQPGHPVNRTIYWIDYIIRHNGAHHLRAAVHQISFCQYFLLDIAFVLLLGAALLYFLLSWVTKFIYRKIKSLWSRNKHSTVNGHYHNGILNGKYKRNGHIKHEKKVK
# Assay: CGT enzyme assay, RapidFire/MS/MS readout (Table 1 ranges with one asterisk *)
# Type: biochemical
# Conditions: RapidFire method (range with one asterisk *)
# Experimental: Full-length human CGT cDNA was cloned into the BamH1/Xho1 site of pcDNA3.1 (+) mammalian expression vector (V90-20, Invitrogen, Carlsbad, Calif.) and the plasmid was transfected into Chinese hamster ovary (CHO) cells. Lysate was prepared using M-PER (Mammalian Protein Extraction Reagent, ThermoFisher Scientific, Grand Island, N.Y.) in the presence of a protease inhibitor cocktail (P8340, Sigma, Saint Louis, Mo.). Each 100 mm dish (100% confluent, approximately 1×10^7 cells) was lysed with 250 μL of M-PER containing protease inhibitors. Protein concentration was determined using a Pierce BCA protein assay kit (ThermoFisher Scientific). Four micrograms of CHO/CGT lysate was incubated with various concentrations of a compound (0.001 μM-50 μM) in 10 mM HEPES (pH 7.2) containing 35 μM dioleoylphosphatidylcholine, 5 mM MgCl2, 5 mM MnCl2, 1% BSA, 15 mM KCl, 1 mM EGTA, 8 mM CHAPS, 10 μM C6-NBD-dihydro-ceramide and 17.5 μM UDP-galactose in a final reaction volume of 20 μL at 37° C. for 1 hour. The final concentration of DMSO was 0.5% in both compound-treated and mock-treated samples. Tween 80 (0.01%) was optionally added to the reaction mixture to help solubilize the compounds. Each individual reaction was diluted with 80 μL of methanol:acetronitrile (1:3) containing 5 μM N-docdecanoyl-NBD-galactosylceramide (internal standard) to stop the reaction. 200 μL H2O:acetonitile (1:1) was added to precipitate the protein. After sufficient mixing, the plates were centrifuged at 2469 g for 38 minutes, 200 μL of supernatant was transferred to a LC/MS 96-deep well plate and a second spin was performed at 2469 g for 10 minutes. The final supernatant was injected in triplicate for RapidFire/MS/MS analysis.
# Quantitative Analysis Using the RapidFire/MS/MS Method:
# The quantitative analysis of C6-NBD-dihydro-ceramide and C6-NBD-dihydro-galactosylceramide was performed on a Rapid Fire 360 high-throughput mass spectrometry system (Agilent Technologies, Palo Alto, Calif.) coupled with a API4000^+ triple quadrupole mass spectrometer (Applied Biosystems, Concord, Ontario, Canada). RapidFire software packages, including RapidFire Control panel, RapidFire UI and RapidFire Integrator (Agilent Technologies), were used to control the RapidFire instrument and to process data. Analyst 1.6.2 software packages (Applied Biosystems) were used to control the MS system and acquire MS data. […] of sample was loaded on a micro-scale C4 solid-phase extraction (SPE) cartridge (Agilent Technologies) and salts were removed using water supplemented with 0.1% formic acid at the flow rate of 1.5 mL/min for 3 sec. C6-NBD-dihydro-ceramide and C6-NBD-dihydro-galactosylceramide were co-eluted into the mass spectrometer using acetonitrile containing 0.1% formic acid at the flow rate of 1.0 mL/min for 3 sec. The total cycle time of one injection was 8 secs. The MS/MS detection was performed in ESI negative mode. The mass transition of C6-NBD-dihydro-galactosylceramide was m/z 752.6→678.6 using a −40 V collision energy, the mass transition of C6-NBD-dihydro-ceramide was m/z 590.6→115.8 using a −40 V collision energy and the mass transition of N-docdecanoyl-NBD-galactosylceramide was m/z 820.9→746.3 using a −45 V collision energy.
# The C6-NBD-dihydro-galactosylceramide reading was normalized first by dividing the peak area of C6-NBD-dihydro-galactosylceramide by the peak area of the internal standard, N-docdecanoyl-NBD-galactosylceramide. IC50 values (see Table 1, where data ranges with one asterix (*) correspond to analysis using the RapidFire/MS/MS method, and data ranges with two asterixes (**) correspond to analysis using the RapidFire/MS/MS method with 0.01% Tween added) were generated from sigmoidal dose-response curves (variable slope) with GraphPad Prism software (GraphPad Software, Inc., San Diego, Calif.) using the normalized peak areas of C6-NBD-dihydro-galactosylceramide or the percent inhibition of C6-NBD-dihydro-galactosylceramide accumulation relative to DMSO control. […]
row,SMILES,IC50 [µM]
1,"NC1CCN(C(=O)[C@@H](NS(=O)(=O)c2ccc(OCC3CCCCC3)cc2)C(F)(F)c2ccc(C(F)(F)F)cc2)CC1 [Compound 72-1, (R)—N-(3-(4-aminopiperidin-1-yl)-1,1-difluoro-3-oxo-1-(4-(trifluoromethyl)phenyl)propan-2-yl)-4-(cyclohexylmethoxy)benzenesulfonamide]",1 to 10
2,"CCOc1ccc(C(F)(F)[C@H](C(=O)N2C3CCC2CC(N)C3)N(C)S(=O)(=O)c2ccc3cc(OC4CCCC4)ccc3c2)cc1 (stereo partly drawn) [Compound 114-2, N-((2S)-3-(3-amino-8-azabicyclo[3.2.1]octan-8-yl)-1-(4-ethoxyphenyl)-1,1-difluoro-3-oxopropan-2-yl)-6-(cyclopentyloxy)-N-methylnaphthalene-2-sulfonamide]",10 to 30
3,"NC1CC2CCC(C1)N2C(=O)[C@@H](NS(=O)(=O)c1ccc(OCC2CCCCC2)cc1)C(F)(F)c1ccc(Cl)cc1 (stereo partly drawn) [Compound 29-1, N-((2R)-3-(3-amino-8-azabicyclo[3.2.1]octan-8-yl)-1-(4-chlorophenyl)-1,1-difluoro-3-oxopropan-2-yl)-4-(cyclohexylmethoxy)benzenesulfonamide trifluoroacetate]",< 1
4,"CN([C@@H](C(=O)N1C2CCC1CC(N)C2)C(F)(F)c1cccc(Oc2ccccc2)c1)S(=O)(=O)c1ccc2cc(OC3CCCC3)ccc2c1 (stereo partly drawn) [Compound 111-2, N-((2S)-3-(3-amino-8-azabicyclo[3.2.1]octan-8-yl)-1,1-difluoro-3-oxo-1-(3-phenoxyphenyl)propan-2-yl)-6-(cyclopentyloxy)-N-methylnaphthalene-2-sulfonamide trifluoroacetate]",10 to 30
5,"NC1CC2CCC(C1)N2C(=O)[C@@H](NS(=O)(=O)c1ccc(OCC2CCCCC2)cc1)C(F)(F)c1cccc(-c2ccccc2)c1 (stereo partly drawn) [Compound 70-1, N-((2R)-1-([1,1′-biphenyl]-3-yl)-3-(3-amino-8-azabicyclo[3.2.1]octan-8-yl)-1,1-difluoro-3-oxopropan-2-yl)-4-(cyclohexylmethoxy)benzenesulfonamide trifluoroacetate]",1 to 10
6,"COc1cc(C(F)(F)[C@H](NS(=O)(=O)c2ccc3cc(OC4CCCC4)ccc3c2)C(=O)N2CCC(N)CC2)ccc1Cl [Compound 123-1, (R)—N-(3-(4-aminopiperidin-1-yl)-1-(4-chloro-3-methoxyphenyl)-1,1-difluoro-3-oxopropan-2-yl)-6-(cyclopentyloxy)naphthalene-2-sulfonamide]",< 1
7,"NC1CC2CCC(C1)N2C(=O)[C@@H](NS(=O)(=O)c1ccc2cc(OC3CCCC3)ccc2c1)C(F)(F)c1cccc(Oc2ccccc2)c1 (stereo partly drawn) [Compound 107-1, N-((2R)-3-(3-amino-8-azabicyclo[3.2.1]octan-8-yl)-1,1-difluoro-3-oxo-1-(3-phenoxyphenyl)propan-2-yl)-6-(cyclopentyloxy)naphthalene-2-sulfonamide]",< 1
8,"NC1CCN(C(=O)[C@@H](NC(=O)[C@@H](O)c2ccc(OCC3CCCCC3)cc2)C(F)(F)c2ccc(-c3ccc(Cl)cc3)cc2)CC1 [Compound 141-3, (S)—N—((R)-3-(4-aminopiperidin-1-yl)-1-(4′-chloro-[1,1′-biphenyl]-4-yl)-1,1-difluoro-3-oxopropan-2-yl)-2-(4-(cyclohexylmethoxy)phenyl)-2-hydroxyacetamide trifluoroacetate]",1 to 10
9,"NCC1CCN(C(=O)[C@@H](NS(=O)(=O)c2ccc3cc(OC4CCCC4)ccc3c2)C(F)(F)c2ccc(-c3ccc(Cl)cc3)cc2)CC1 [Compound 138-1, (R)—N-(3-(4-(aminomethyl)piperidin-1-yl)-1-(4′-chloro-[1,1′-biphenyl]-4-yl)-1,1-difluoro-3-oxopropan-2-yl)-6-(cyclopentyloxy)naphthalene-2-sulfonamide trifluoroacetate]",< 1
10,"CN([C@H](C(=O)N1C2CCC1CC(N)C2)C(F)(F)c1ccc(O)cc1)S(=O)(=O)c1ccc2cc(OC3CCCC3)ccc2c1 (stereo partly drawn) [Compound 110-1, N-((2R)-3-(3-amino-8-azabicyclo[3.2.1]octan-8-yl)-1,1-difluoro-1-(4-hydroxyphenyl)-3-oxopropan-2-yl)-6-(cyclopentyloxy)-N-methylnaphthalene-2-sulfonamide trifluoroacetate]",1 to 10
11,"CN([C@H](C(=O)N1C2CCC1CC(N)C2)C(F)(F)c1ccc(OCCN2CCOCC2)cc1)S(=O)(=O)c1ccc2cc(OC3CCCC3)ccc2c1 (stereo partly drawn) [Compound 115-1, N-((2R)-3-(3-amino-8-azabicyclo[3.2.1]octan-8-yl)-1,1-difluoro-1-(4-(2-morpholinoethoxy)phenyl)-3-oxopropan-2-yl)-6-(cyclopentyloxy)-N-methylnaphthalene-2-sulfonamide]",1 to 10
12,"CN([C@H](C(=O)N1C2CCC1CC(N)C2)C(F)(F)c1cccc(Oc2ccccc2)c1)S(=O)(=O)c1ccc2cc(OC3CCCC3)ccc2c1 (stereo partly drawn) [Compound 111-1, N-((2R)-3-(3-amino-8-azabicyclo[3.2.1]octan-8-yl)-1,1-difluoro-3-oxo-1-(3-phenoxyphenyl)propan-2-yl)-6-(cyclopentyloxy)-N-methylnaphthalene-2-sulfonamide trifluoroacetate]",< 1
13,"NC1CC2CCC(C1)N2C(=O)[C@@H](NS(=O)(=O)c1ccc2cc(OC3CCCC3)ccc2c1)C(F)(F)c1ccc(-c2ccc(C(F)(F)F)cc2)cc1 (stereo partly drawn) [Compound 55-1, N-((2R)-3-(3-amino-8-azabicyclo[3.2.1]octan-8-yl)-1,1-difluoro-3-oxo-1-(4′-(trifluoromethyl)-[1,1′-biphenyl]-4-yl)propan-2-yl)-6-(cyclopentyloxy) naphthalene-2-sulfonamide trifluoroacetate]",< 1
14,"NC1CCN(C(=O)[C@@H](NS(=O)(=O)c2ccc(OCC3CCCCC3)cc2)C(F)(F)c2ccc(Cl)cc2)CC1 [Compound 30-1, (R)—N-(3-(4-aminopiperidin-1-yl)-1-(4-chlorophenyl)-1,1-difluoro-3-oxopropan-2-yl)-4-(cyclohexylmethoxy)benzenesulfonamide trifluoroacetate]",1 to 10
15,"NC1CC2CCC(C1)N2C(=O)[C@H](NC(=O)[C@H](O)c1ccc2cc(OC3CCCC3)ccc2c1)C(F)(F)c1ccc(Br)cc1 (stereo partly drawn) [Compound 41-4, (2R)—N-((2S)-3-(3-amino-8-azabicyclo[3.2.1]octan-8-yl)-1-(4-bromophenyl)-1,1-difluoro-3-oxopropan-2-yl)-2-(6-(cyclopentyloxy)naphthalen-2-yl)-2-hydroxyacetamide trifluoroacetate]",30 to 100
